# According to ChEMBL document CHEMBL1287723, “The discovery of new spirocyclic muscarinic M3 antagonists” (Bioorg Med Chem Lett, 2010):
# Legend:
# [1] = target: T1, Muscarinic acetylcholine receptor M3 (Homo sapiens, UniProt P20309); assay: Displacement of [3H]NMS from human muscarinic M3 receptor expressed in CHO-K1 cells after 16 hrs by scintillation proximity assay; assay type: cell-based
# Target sequence in this assay (P20309 whole entry): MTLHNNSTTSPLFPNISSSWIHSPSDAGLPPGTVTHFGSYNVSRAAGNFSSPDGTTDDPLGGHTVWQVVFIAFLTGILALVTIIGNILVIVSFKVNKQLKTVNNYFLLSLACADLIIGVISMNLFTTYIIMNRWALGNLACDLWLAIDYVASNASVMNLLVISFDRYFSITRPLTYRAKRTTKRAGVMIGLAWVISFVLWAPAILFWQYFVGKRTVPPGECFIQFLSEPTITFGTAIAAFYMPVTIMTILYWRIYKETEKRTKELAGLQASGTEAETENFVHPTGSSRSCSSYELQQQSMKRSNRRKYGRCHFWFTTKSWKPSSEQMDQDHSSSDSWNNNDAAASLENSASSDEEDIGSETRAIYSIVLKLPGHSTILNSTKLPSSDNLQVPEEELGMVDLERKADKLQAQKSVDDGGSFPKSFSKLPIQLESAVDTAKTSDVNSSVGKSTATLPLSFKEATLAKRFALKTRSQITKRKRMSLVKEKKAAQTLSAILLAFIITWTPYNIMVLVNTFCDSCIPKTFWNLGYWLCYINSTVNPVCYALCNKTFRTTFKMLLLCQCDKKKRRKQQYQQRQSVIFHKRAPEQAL
# [2] = target: T2, Muscarinic acetylcholine receptor M2 (Homo sapiens, UniProt P08172); assay: Displacement of [3H]NMS from human muscarinic M2 receptor expressed in CHO-K1 cells after 16 hrs by scintillation proximity assay; assay type: cell-based
# T2 sequence (P08172 whole entry): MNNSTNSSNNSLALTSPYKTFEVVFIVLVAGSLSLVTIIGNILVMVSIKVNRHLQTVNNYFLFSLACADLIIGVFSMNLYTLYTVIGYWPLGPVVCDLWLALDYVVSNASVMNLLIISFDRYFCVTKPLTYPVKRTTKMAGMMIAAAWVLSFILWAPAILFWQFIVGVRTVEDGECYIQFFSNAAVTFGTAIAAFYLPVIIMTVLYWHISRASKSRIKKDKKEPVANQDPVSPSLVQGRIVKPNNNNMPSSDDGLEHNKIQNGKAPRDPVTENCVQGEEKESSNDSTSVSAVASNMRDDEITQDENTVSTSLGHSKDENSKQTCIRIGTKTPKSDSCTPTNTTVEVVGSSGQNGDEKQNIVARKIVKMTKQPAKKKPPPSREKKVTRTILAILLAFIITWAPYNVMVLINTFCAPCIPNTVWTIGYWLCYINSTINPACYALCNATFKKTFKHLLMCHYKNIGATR
# [3] = target: T1, Muscarinic acetylcholine receptor M3; assay: Displacement of [3H]NMS from human muscarinic M3 receptor expressed in CHO-K1 cells at 1 uM after 16 hrs by scintillation proximity assay; assay type: cell-based
# Target sequence in this assay (P20309 whole entry, looked up): as the sequence (P20309 whole entry) above
# [4] = target: T3, Muscarinic acetylcholine receptor M5 (Homo sapiens, UniProt P08912); assay: Displacement of [3H]NMS from human muscarinic M5 receptor expressed in CHO-K1 cells after 16 hrs by scintillation proximity assay; assay type: cell-based
# T3 sequence (P08912 whole entry): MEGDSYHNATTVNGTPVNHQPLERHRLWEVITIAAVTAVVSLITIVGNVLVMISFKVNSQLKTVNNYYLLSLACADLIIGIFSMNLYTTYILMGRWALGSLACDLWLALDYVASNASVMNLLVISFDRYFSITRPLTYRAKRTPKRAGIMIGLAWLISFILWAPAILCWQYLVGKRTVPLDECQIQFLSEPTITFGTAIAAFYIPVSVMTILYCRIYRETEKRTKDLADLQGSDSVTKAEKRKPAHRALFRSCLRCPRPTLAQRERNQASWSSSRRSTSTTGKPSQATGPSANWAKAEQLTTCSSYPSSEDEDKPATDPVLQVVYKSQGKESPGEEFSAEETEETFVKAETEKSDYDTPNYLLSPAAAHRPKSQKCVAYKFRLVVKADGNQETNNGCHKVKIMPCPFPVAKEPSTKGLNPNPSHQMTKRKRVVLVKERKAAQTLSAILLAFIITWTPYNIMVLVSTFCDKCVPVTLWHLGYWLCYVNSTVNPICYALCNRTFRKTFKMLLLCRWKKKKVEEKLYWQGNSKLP
# [5] = target: T4, Muscarinic acetylcholine receptor M1 (Homo sapiens, UniProt P11229); assay: Displacement of [3H]NMS from human muscarinic M1 receptor expressed in CHO-K1 cells after 16 hrs by scintillation proximity assay; assay type: cell-based
# T4 sequence (P11229 whole entry): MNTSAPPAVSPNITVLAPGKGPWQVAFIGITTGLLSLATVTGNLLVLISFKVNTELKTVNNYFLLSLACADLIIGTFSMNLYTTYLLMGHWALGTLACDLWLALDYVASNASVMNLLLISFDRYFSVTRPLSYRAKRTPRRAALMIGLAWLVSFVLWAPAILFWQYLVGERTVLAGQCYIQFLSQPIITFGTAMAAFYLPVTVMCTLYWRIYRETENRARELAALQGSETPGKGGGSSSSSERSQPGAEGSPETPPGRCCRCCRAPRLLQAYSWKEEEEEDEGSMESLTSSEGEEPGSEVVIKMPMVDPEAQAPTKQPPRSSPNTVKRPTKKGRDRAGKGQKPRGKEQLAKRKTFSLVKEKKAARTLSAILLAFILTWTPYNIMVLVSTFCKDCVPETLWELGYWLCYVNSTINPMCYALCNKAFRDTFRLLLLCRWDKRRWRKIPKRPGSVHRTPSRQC
# [6] = target: T5, Muscarinic acetylcholine receptor M4 (Homo sapiens, UniProt P08173); assay: Displacement of [3H]NMS from human muscarinic M4 receptor expressed in CHO-K1 cells after 16 hrs by scintillation proximity assay; assay type: cell-based
# T5 sequence (P08173 whole entry): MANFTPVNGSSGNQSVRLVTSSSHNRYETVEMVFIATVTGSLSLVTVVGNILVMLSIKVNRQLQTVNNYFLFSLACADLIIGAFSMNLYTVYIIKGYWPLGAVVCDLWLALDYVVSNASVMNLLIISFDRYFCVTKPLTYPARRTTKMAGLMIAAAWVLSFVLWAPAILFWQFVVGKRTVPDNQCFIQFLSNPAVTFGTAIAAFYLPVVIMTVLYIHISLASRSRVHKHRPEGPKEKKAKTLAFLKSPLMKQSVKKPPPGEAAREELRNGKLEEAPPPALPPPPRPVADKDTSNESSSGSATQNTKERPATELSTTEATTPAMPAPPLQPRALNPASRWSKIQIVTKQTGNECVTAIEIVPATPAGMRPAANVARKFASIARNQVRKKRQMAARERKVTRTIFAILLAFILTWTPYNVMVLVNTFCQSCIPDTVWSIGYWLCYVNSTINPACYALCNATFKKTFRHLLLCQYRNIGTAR
# [7] = Clearance in human microsomes; assay type: ADME, Microsome
# [8] = Lipophilicity, log D of the compound; assay type: physicochemical; settings: octanol/water
# Hepatocyte = assay: Clearance in rat hepatocytes; assay type: ADME, cell-based, Liver
Structure (SMILES),IC50 [1],IC50 [2],further results
O=C(c1ccco1)N1CCC2(CCN(Cc3ccccc3)CC2)CC1,> 1000 nM,79.4 nM,
O=C(c1ncccn1)N1CCOC2(CCN(Cc3ccc(Cl)cc3)CC2)C1,398 nM,126 nM,
CC(C)c1nc(C(=O)N2CCOC3(CCN(Cc4ccc(Cl)cc4)CC3)C2)cs1,15.8 nM,31.6 nM,
O=C(c1ccoc1)N1CCOC2(CCN(Cc3ccc(Cl)cc3)CC2)C1,126 nM,63.1 nM,
O=C(c1ccon1)N1CCOC2(CCN(Cc3ccc(Cl)cc3)CC2)C1,398 nM,79.4 nM,
O=C(O[C@H]1C[N+]2(CCCOc3ccccc3)CCC1CC2)C(O)(c1cccs1)c1cccs1 [ACLIDINIUM BROMIDE],,,IC50 [4]: 0.158 nM; IC50 [5]: 0.1 nM; IC50 [6]: 0.2 nM
CCOc1ccccc1C(=O)N1CCC2(CCN(Cc3ccccc3)CC2)CC1,794 nM,79.4 nM,
CC(C)c1nc(C(=O)N2CCOC3(CCN(Cc4cccc(Cl)c4)CC3)C2)cs1,5.01 nM,10 nM,
C[N+]1(C)[C@@H]2C[C@@H](OC(=O)C(O)(c3cccs3)c3cccs3)C[C@H]1[C@@H]1O[C@@H]12 [TIOTROPIUM BROMIDE],,,IC50 [4]: 0.1 nM; IC50 [6]: 0.0398 nM
O=C(c1cccnc1)N1CCOC2(CCN(Cc3ccc(Cl)cc3)CC2)C1,> 1000 nM,,
Cc1ccccc1CN1CCC2(CC1)CN(C(=O)c1csc(C(C)C)n1)CCO2,398 nM,794 nM,
O=C(c1cscn1)N1CCOC2(CCN(Cc3ccc(Cl)cc3)CC2)C1,158 nM,50.1 nM,
O=C(c1ccc(CO)o1)N1CCOC2(CCN(Cc3ccc(Cl)cc3)CC2)C1,100 nM,126 nM,
Cc1cccc(CN2CCC3(CC2)CCN(C(=O)c2ccccc2)CC3)c1,100 nM,2.51 nM,
Cc1nc(C(=O)N2CCOC3(CCN(Cc4ccccc4Cl)CC3)C2)cs1,7.94 nM,3.16 nM,
CC(C)c1nc(C(=O)N2CCOC3(CCN(Cc4ccccc4Cl)CC3)C2)cs1,20 nM,25.1 nM,

# The next lines start with results.
IC50 [1],IC50 [2],Structure (SMILES),further results
,251 nM,O=C(c1ncccn1)N1CCC2(CCN(Cc3ccccc3)CC2)CC1,inhibition [3]: < 50%
> 1000 nM,> 1000 nM,Cc1nc(C(=O)N2CCCC3(CCN(Cc4ccc(Cl)cc4)CC3)C2)cs1,
> 1000 nM,> 1000 nM,CC(C)(C)c1nc(C(=O)N2CCOC3(CCN(Cc4ccc(Cl)cc4)CC3)C2)cs1,
100 nM,3.98 nM,O=C(c1ccccc1)N1CCC2(CCN(Cc3cccc(Cl)c3)CC2)CC1,
200 nM,39.8 nM,O=C(c1cnsn1)N1CCOC2(CCN(Cc3ccc(Cl)cc3)CC2)C1,
63.1 nM,20 nM,O=C(c1cccs1)N1CCOC2(CCN(Cc3ccc(Cl)cc3)CC2)C1,
> 1000 nM,79.4 nM,O=C(c1cccnc1)N1CCC2(CCN(Cc3ccccc3)CC2)CC1,
316 nM,15.8 nM,O=C(c1ccsc1)N1CCC2(CCN(Cc3ccccc3)CC2)CC1,
> 1000 nM,> 1000 nM,Cc1nc(C(=O)N2CCCC3(CCN(Cc4ccccc4)CC3)C2)cs1,
15.8 nM,12.6 nM,CCc1nc(C(=O)N2CCOC3(CCN(Cc4ccc(Cl)cc4)CC3)C2)cs1,
63.1 nM,25.1 nM,O=C(c1ccco1)N1CCOC2(CCN(Cc3ccc(Cl)cc3)CC2)C1,
1.26 nM,1.26 nM,Cc1nc(C(=O)N2CCOC3(CCN(Cc4cccc(Cl)c4)CC3)C2)cs1,
3.98 nM,15.8 nM,CC(C)c1nc(C(=O)N2CCOC3(CCN(Cc4ccccc4)CC3)C2)cs1,
251 nM,126 nM,O=C(c1ccccc1)N1CCOC2(CCN(Cc3ccc(Cl)cc3)CC2)C1,
31.6 nM,31.6 nM,O=C(c1ccc2occc2c1)N1CCOC2(CCN(Cc3ccc(Cl)cc3)CC2)C1,
50.1 nM,50.1 nM,Cc1ccc(C(=O)N2CCOC3(CCN(Cc4ccc(Cl)cc4)CC3)C2)o1,
126 nM,6.31 nM,O=C(c1ccccc1)N1CCC2(CCN(Cc3ccccc3)CC2)CC1,
10 nM,3.16 nM,Cc1nc(C(=O)N2CCOC3(CCN(Cc4ccc(Cl)cc4)CC3)C2)cs1,microsomal CLint [7]: 11 µL/min/mg; logD [8]: 2.2; CL (Hepatocyte): 47 µL/min/mg
